Key:
Test in all cases: Pre-emergent herbicidal activity (Table A)
Type in all cases: in vivo
[1] = system: Yellow Nutsedge; settings: Cyperus, pre-emergence, Yens, 11.2 kg/ha, 10-14 days, read-out: herbicidal rating (% inhibition)
How it was run: (§1)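 Seeds or vegetative propagules were set on topsoil compacted to 0.95 to 1.27 cm below the pan rim, then covered with soil thoroughly mixed with a known amount of test compound in acetone or water carrier. Ratings follow a scale of percent inhibition per species.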

[2] = system: Morningglory; settings: Ipomoea, pre-emergence, Mogl, 11.2 kg/ha, 10-14 days, read-out: herbicidal rating (% inhibition)
How it was run: as §1

[3] = system: Pennsylvania Smartweed; settings: pre-emergence, Pesw, 11.2 kg/ha, 10-14 days, read-out: herbicidal rating (% inhibition)
How it was run: as §1

[4] = system: Downy Brome; settings: Bromus tectorum, pre-emergence, Dobr, 11.2 kg/ha, 10-14 days, read-out: herbicidal rating (% inhibition)
How it was run: as §1

[5] = system: Common Lambsquarters; settings: Chenopodium album, pre-emergence, Colq, 11.2 kg/ha, 10-14 days, read-out: herbicidal rating (% inhibition)
How it was run: as §1

[6] = system: Cocklebur; settings: Xanthium strumarium, pre-emergence, Cobu, 11.2 kg/ha, 10-14 days, read-out: herbicidal rating (% inhibition)
How it was run: as §1

[7] = system: Rhizome Johnsongrass; settings: Sorghum halepense, pre-emergence, Rhjg, 11.2 kg/ha, 10-14 days, read-out: herbicidal rating (% inhibition)
How it was run: as §1

[8] = system: Velvetleaf; settings: Abutilon theophrasti, pre-emergence, Vele, 11.2 kg/ha, 10-14 days, read-out: herbicidal rating (% inhibition)
How it was run: as §1

[9] = system: Quackgrass; settings: pre-emergence, Rhqg, 11.2 kg/ha, 10-14 days, read-out: herbicidal rating (% inhibition)
How it was run: as §1

[10] = system: Barnyardgrass; settings: Echinochloa crus-galli, pre-emergence, Bygr, 11.2 kg/ha, 10-14 days, read-out: herbicidal rating (% inhibition)
How it was run: as §1

[11] = system: Canada thistle; settings: Cirsium arvense, pre-emergence, Cath, 11.2 kg/ha, 10-14 days, read-out: herbicidal rating (% inhibition)
How it was run: as §1

| Structure (SMILES) | inhibition at 11200 g/ha [1] | inhibition at 11200 g/ha [2] | inhibition at 11200 g/ha [3] | inhibition at 11200 g/ha [4] | inhibition at 11200 g/ha [5] | inhibition at 11200 g/ha [6] | inhibition at 11200 g/ha [7] | inhibition at 11200 g/ha [8] | inhibition at 11200 g/ha [9] | inhibition at 11200 g/ha [10] | inhibition at 11200 g/ha [11] |
| --- | --- | --- | --- | --- | --- | --- | --- | --- | --- | --- | --- |
| COC(=O)c1c(OC)nc(C(F)(F)F)c(C2=NCCO2)c1CC(C)C [Compound 43, 3-pyridinecarboxylic acid, 5-(4,5-dihydro-2-oxazolyl)-2-methoxy-4-(2-methylpropyl)-6-(trifluoromethyl)-, methyl ester] | 75 to 100% | 75 to 100% | 75 to 100% | 75 to 100% | 75 to 100% | 50 to 74% | 75 to 100% | 75 to 100% | 75 to 100% | 75 to 100% | 75 to 100% |
| CCOC(=O)c1c(C(F)(F)F)nc(OC)c(C(=O)OC)c1CC(C)C [Compound 44, 3,5-pyridinedicarboxylic acid, 2-methoxy-4-(2-methylpropyl)-6-(trifluoromethyl)-, 5-ethyl 3-methyl ester] | 75 to 100% | 75 to 100% | 75 to 100% | 75 to 100% | 75 to 100% | 25 to 49% | 75 to 100% | 75 to 100% | 75 to 100% | 75 to 100% | 75 to 100% |
| CCOc1nc(C(F)(F)F)c(C(=O)SC)c(CC(C)C)c1C(=O)OC [Compound 45, 3-pyridinecarboxylic acid, 2-ethoxy-4-(2-methylpropyl)-5-[(methylthio)carbonyl]-6-(trifluoromethyl)-, methyl ester] | 75 to 100% | 75 to 100% | 75 to 100% | 75 to 100% | 75 to 100% | 0 to 24% | 75 to 100% | 75 to 100% | 75 to 100% | 75 to 100% | 75 to 100% |
| CCOc1nc(C(F)(F)F)c(C(=NC)SC)c(CC(C)C)c1C(=O)OC [Compound 46, 3-pyridinecarboxylic acid, 2-ethoxy-5-[(methylimino)(methylthio)methyl]-4-(2-methylpropyl)-6-(trifluoromethyl)-, methyl ester] | 0 to 24% | 75 to 100% | 75 to 100% | 75 to 100% | 75 to 100% | 0 to 24% | 0 to 24% | 50 to 74% | 75 to 100% | 75 to 100% | 75 to 100% |
| COc1nc(C(F)(F)F)c(C(=O)SC)c(CC(C)C)c1C(=O)SC [Compound 47, 3,5-pyridinedicarbothioic acid, 2-methoxy-4-(2-methylpropyl)-6-(trifluoromethyl)-, S,S,-dimethyl ester] | 75 to 100% | 75 to 100% | 75 to 100% | 75 to 100% | 75 to 100% | 25 to 49% | 75 to 100% | 75 to 100% | 75 to 100% | 75 to 100% | 75 to 100% |
| COC(=O)c1c(OC)nc(C(F)(F)F)c(C(=O)OC)c1C1CCC1 [Compound 48, 3,5-pyridinedicarboxylic acid, 4-cyclobuty1-2-methoxy-6-(trifluoromethyl)-, dimethyl ester] | 75 to 100% | 75 to 100% | 75 to 100% | 75 to 100% | 75 to 100% | 75 to 100% | 75 to 100% | 75 to 100% | 75 to 100% | 75 to 100% | 75 to 100% |
| CCOc1nc(C(F)(F)F)c(C(=O)n2cccn2)c(CC(C)C)c1C(=O)OC [Compound 49, 3-pyridinecarboxylic acid, 2-ethoxy-4-(2-methylpropyl)-5-(1H-pyrazo1-1-ylcarbonyl)-6-(trifluoromethyl)-, methyl ester] | 75 to 100% | 75 to 100% | 75 to 100% | 75 to 100% | 75 to 100% | 25 to 49% | 50 to 74% | 75 to 100% | 75 to 100% | 75 to 100% | 75 to 100% |
| COC(=O)c1c(OC)nc(C(F)(F)F)c(C(=O)n2ccc(C)n2)c1CC(C)C [Compound 51, 3-pyridinecarboxylic acid, 2-methoxy-4-(2-methylpropyl)-5-[(3-methy1-1H-pyrazo1-1-yl)carbonyl]-6-(trifluoromethyl)-, methyl ester] | 25 to 49% | 75 to 100% | 75 to 100% | 75 to 100% | 75 to 100% | 25 to 49% | 75 to 100% | 75 to 100% | 75 to 100% | 75 to 100% | 75 to 100% |
| COC(=O)c1c(OC)nc(C(F)(F)F)c(C(=O)n2cccn2)c1C1CCC1 [Compound 52, 3-pyridinecarboxylic acid, 4-cyclobutyl-2-methoxy-5-(1H-pyrazo1-1-ylcarbonyl)-6-(trifluoromethyl)-, methyl ester] | 75 to 100% | 75 to 100% | 75 to 100% | 75 to 100% | 75 to 100% | 75 to 100% | 0 to 24% | 75 to 100% | 75 to 100% | 75 to 100% | 75 to 100% |
| CCSC(=O)c1c(C(F)(F)F)nc(OC)c(C(=O)OC)c1CC(C)C [Compound 53, 3-pyridinecarboxylic acid, 5-[(ethylthio)carbonyl]-2-methoxy-4-(2-methylpropyl)-6-(trifluoromethyl)-, methyl ester] | 0 to 24% | 75 to 100% | 75 to 100% | 75 to 100% | 75 to 100% | 75 to 100% | 0 to 24% | 75 to 100% | 75 to 100% | 75 to 100% | 0 to 24% |
| COc1nc(C(F)(F)F)c(C2=NCCS2)c(CC(C)C)c1C(=O)SC [Compound 54, 3-pyridinecarbothioic acid, 5-(4,5-dihydro-2-thiazolyl)-2-methoxy-4-(2-methylpropyl)-6-(trifluoromethyl)-, S-methyl ester] | 0 to 24% | 75 to 100% | 75 to 100% | 75 to 100% | 75 to 100% | 25 to 49% | 0 to 24% | 75 to 100% | 75 to 100% | 75 to 100% | 75 to 100% |
| CN=C(SC)c1c(OC)nc(C(F)(F)F)c(C(=O)OC)c1CC(C)C [Compound 55, 3-pyridinecarboxylic acid, 6-methoxy-5-[(methylimino)(methylthio)methyl]-4-(2-methylpropyl)-2-(trifluoromethyl)-, methyl ester] | 0 to 24% | 25 to 49% | 75 to 100% | 75 to 100% | 75 to 100% | 0 to 24% | 0 to 24% | 25 to 49% | 75 to 100% | 75 to 100% | 0 to 24% |
| COC=Nc1c(OC)nc(C(F)(F)F)c(C(=O)OC)c1CC(C)C [Compound 56, 3-pyridinecarboxylic acid, 6-methoxy-5-[(methoxymethylene)amino]-4-(2-methylpropyl)-2-(trifluoromethyl)-, methyl ester] | 0 to 24% | 0 to 24% | 0 to 24% | 75 to 100% | 75 to 100% | 0 to 24% | 0 to 24% | 0 to 24% | 0 to 24% | 75 to 100% | 0 to 24% |

From patent publication US5391540A, “Substituted pyridine compounds” (Rohm and Haas Company, priority 1993, dated 1995)
